pKd: −log10 of the molar value. Each block holds one substance with its values, some of them ahead of it.
Legend:
[1] = molecular target: rabbit megalin (rabbit); assay: SPR (BIAcore 2000), rabbit megalin immobilized, 20 nM purified cubilin in flow, blank chip subtracted, one-binding-site fit
[2] = tested on: renal brush border membrane; details: cited from earlier work
[3] = molecular target: Rabbit megalin; assay: Megalin-cubilin interaction analysis by surface plasmon resonance; format: binding
Experimental: Rabbit megalin was immobilized to a sensor chip and the on rates and off rates for the binding of cubilin was recorded by flow of 20 nM purified cubilin along the chip surface. For control, cubilin was subjected to a blank chip. […] The binding curves in the presence of 10 mM EDTA or after prebinding of RAP to megalin are also shown. […] By fitting the binding data to a one-binding-site model a Kd of 7 nM was measured.
Surface plasmon resonance measurements were performed on a BIAcore 2000 instrument (Pharmacia, Sweden). BIAcore sensor chips (type CM5, Pharmacia) were activated with 1:1 mixture of 0.2 M N-ethyl-N′-(3-dimethylaminopropyl) carbodiimide and 0.05 M N-hydroxysuccimine in water. Rabbit megalin was immobilized as described (Moestrup et al., 1996) at a concentration of 40 μg/ml in 10 mM sodium acetate, pH 4.5 and the remaining binding sites were blocked with 1 M ethanolamine, pH 8.5. The flow buffer was 10 mM Hepes, 150 mM NaCl and […], 1 mM EDTA, pH 7.4. The binding data were analyzed using the BIAevaluation program.
Bound radiolabel was released from the column by EDTA. Surface plasmon analysis (FIG. 10A) confirmed this binding. […] Megalin-bound cubilin was still capable of binding IF-B12 as shown by subjecting the megalin-chip to flow with IF-B12 after the binding of cubilin (FIG. 10B). Thus, the response after adding IF-B12 represents the formation of a megalin-cubilin-IF-B12 complex.

[4] = tested on: rat renal brush border membrane vesicles; assay: Gentamicin competition with fluorescein-light chain binding to brush border membrane vesicles (flow cytometry); details: control 39.6±4.2, n=4
Experimental: Given the abundance of megalin on the renal brush border membrane, if megalin is a light chain receptor this would predict that small polybasic drugs, such as gentamicin, which are known ligands for megalin, should compete for light chain binding to renal brush border membrane vesicles. To test this, rat renal brush border membrane vesicles were incubated in fluorescein-conjugated light chains with various concentrations of gentamicin. After washing, fluorescein-light chain binding to the membranes was analyzed by flow cytometry (FIG. 16). Estimate of half maximal binding concentration of gentamicin between 60 and 70 μM was placed in the middle of the curve. Gentamicin competes with fluorescent light chain binding to renal brush border membranes in a dose-dependent manner (control FITC-light chain binding 39.6±4.2 arbitrary fluorescence units, 10 μM gentamicin 45.1±3.1, 100 μM gentamicin 8.9±33.8*, 1000 μM gentamicin 6.3±1.9*, n=4, *p<0.05).

[5] = molecular target: T1, Cubilin (Rattus norvegicus, UniProt O70244); assay: Ligands for cubilin: competition with known ligands; format: binding; details: RAP vs IF-B12; haptoglobin vs light chains; gentamicin vs light chain
T1 sequence (O70244 33-3623): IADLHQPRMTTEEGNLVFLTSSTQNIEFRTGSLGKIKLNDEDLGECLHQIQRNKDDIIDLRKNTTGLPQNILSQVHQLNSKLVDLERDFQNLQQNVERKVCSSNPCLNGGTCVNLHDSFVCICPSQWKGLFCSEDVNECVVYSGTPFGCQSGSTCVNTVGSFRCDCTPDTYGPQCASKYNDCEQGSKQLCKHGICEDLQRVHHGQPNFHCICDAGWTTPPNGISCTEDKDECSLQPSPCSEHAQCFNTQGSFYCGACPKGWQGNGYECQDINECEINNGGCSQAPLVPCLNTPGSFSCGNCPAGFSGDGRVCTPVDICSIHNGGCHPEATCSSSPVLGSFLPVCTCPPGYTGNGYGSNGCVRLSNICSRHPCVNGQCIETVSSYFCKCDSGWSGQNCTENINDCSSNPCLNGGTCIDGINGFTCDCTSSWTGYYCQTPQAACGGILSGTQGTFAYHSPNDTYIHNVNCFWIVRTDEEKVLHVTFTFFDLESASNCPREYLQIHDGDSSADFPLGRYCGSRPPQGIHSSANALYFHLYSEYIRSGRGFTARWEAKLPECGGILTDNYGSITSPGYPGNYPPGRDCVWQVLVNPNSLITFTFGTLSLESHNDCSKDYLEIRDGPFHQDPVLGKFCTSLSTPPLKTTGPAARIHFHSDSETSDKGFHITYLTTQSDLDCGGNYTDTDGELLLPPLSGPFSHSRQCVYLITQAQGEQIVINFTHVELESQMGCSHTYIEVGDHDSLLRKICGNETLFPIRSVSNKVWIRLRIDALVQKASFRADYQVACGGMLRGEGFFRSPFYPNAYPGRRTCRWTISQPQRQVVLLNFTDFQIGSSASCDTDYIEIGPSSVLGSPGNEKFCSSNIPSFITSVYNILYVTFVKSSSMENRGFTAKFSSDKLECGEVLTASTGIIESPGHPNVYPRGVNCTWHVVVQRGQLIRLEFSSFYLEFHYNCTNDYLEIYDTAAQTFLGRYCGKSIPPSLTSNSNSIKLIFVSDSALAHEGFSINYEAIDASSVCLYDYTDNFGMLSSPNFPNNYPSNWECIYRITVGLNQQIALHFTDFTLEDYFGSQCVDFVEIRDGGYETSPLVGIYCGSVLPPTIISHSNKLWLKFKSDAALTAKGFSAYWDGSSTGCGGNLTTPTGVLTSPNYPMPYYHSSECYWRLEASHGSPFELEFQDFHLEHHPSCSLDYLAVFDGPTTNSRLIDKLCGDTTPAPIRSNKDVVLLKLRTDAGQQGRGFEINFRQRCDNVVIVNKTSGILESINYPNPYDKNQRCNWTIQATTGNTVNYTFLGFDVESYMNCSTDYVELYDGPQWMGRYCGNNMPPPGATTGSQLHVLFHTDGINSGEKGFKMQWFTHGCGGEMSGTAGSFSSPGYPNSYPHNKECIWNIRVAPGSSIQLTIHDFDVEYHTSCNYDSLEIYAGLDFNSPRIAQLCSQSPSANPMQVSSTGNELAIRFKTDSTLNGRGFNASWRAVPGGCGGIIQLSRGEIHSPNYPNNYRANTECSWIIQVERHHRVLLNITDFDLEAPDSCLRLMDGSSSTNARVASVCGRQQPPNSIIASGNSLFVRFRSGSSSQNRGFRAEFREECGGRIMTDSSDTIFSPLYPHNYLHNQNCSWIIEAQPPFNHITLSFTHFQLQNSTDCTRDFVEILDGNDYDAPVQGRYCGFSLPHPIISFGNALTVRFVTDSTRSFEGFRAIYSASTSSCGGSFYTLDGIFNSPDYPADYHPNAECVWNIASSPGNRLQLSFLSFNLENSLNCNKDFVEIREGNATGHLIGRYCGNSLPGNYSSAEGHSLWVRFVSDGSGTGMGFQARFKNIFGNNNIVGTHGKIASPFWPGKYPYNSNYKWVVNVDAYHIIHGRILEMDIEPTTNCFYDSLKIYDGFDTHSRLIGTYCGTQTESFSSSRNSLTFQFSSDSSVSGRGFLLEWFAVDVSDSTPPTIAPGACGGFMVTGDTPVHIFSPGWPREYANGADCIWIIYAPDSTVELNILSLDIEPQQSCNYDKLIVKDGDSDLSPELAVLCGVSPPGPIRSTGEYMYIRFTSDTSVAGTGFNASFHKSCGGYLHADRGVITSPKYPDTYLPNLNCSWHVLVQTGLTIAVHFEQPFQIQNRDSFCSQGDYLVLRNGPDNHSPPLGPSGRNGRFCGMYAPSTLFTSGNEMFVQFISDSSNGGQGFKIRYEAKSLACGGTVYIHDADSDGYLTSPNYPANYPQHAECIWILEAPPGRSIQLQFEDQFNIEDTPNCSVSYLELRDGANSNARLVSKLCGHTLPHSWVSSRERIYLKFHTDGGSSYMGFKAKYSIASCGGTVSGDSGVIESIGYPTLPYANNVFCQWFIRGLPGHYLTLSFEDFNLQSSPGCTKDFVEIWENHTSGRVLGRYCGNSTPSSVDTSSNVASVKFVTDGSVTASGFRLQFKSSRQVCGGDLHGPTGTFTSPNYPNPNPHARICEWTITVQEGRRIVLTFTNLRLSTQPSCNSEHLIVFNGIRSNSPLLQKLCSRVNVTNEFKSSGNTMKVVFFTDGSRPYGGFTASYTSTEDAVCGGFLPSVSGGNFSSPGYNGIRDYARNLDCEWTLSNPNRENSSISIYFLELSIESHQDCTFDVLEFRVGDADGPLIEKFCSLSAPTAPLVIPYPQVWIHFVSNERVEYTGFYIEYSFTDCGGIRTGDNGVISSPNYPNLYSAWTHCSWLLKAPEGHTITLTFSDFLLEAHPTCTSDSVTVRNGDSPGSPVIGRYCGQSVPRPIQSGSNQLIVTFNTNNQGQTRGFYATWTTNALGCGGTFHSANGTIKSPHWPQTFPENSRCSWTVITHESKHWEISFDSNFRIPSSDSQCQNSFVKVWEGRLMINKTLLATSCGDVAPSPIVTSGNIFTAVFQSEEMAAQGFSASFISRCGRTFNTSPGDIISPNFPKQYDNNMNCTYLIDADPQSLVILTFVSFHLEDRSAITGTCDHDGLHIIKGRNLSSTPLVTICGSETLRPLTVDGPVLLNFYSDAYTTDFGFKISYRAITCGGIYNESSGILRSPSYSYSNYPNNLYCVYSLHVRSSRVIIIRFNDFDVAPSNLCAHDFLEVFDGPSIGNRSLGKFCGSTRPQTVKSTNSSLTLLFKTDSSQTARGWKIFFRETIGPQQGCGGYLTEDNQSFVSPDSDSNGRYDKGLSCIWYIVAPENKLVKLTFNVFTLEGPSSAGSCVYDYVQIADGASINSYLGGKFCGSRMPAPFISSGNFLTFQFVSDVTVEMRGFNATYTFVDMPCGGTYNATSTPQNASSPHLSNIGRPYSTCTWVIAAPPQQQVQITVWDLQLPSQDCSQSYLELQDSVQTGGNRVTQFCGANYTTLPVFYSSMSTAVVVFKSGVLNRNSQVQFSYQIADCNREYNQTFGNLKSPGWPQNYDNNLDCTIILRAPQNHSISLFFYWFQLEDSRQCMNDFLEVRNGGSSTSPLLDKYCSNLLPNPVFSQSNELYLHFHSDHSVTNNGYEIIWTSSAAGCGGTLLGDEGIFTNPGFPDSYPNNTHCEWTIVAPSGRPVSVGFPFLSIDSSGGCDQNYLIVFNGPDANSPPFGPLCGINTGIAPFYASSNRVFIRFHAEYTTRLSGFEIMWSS

[6] = molecular target: megalin in native membranes (rat renal brush-border membrane vesicles; rat yolk sac cells) (rat) (UniProt P98158); assay: cell-based or functional assay
[7] = molecular target: rabbit megalin (rabbit); assay: SPR, RAP prebound to immobilized rabbit megalin; competitor cubilin in flow
[8] = tested on: rat renal cortical intermicrovillar clefts; assay: Endosomal fusion reconstituted in vitro (energy transfer); format: biochemical; design: dose or concentration left out as unconfirmed; details: membranes loaded with λ-light chains via homogenization buffer; n=8
Description: The λ_light chains were loaded into rat renal cortical intermicrovillar cleft at […] by addition to the homogenization buffer. Fusion reconstituted in vitro in light chain-loaded membranes was inhibited compared with albumin-loaded control membranes. Values are mean±standard error for n=8, p<0.05 by unpaired t-test.
Fusion of these light chain loaded membranes was compared to control membranes loaded with the same concentration of albumin. All fluorescence measurements were corrected per mg of protein, and fusion reconstituted in vitro in cuvettes (Hammond et al., 1994). Data are expressed as mean +standard error of the mean throughout the application. Statistical analysis was performed by analysis of variance and Bonferroni or Scheffe's post hoc comparison.
To test whether myeloma light chains are functionally important in membrane trafficking and fusion events, intermicrovillar clefts were loaded with light chains by adding it to the homogenization buffer (Hammond et al., 1994). Fusion reconstituted in vitro in cuvettes was assayed by energy transfer, and results were normalized per milligram protein (Hammond et al., 1994; Jo et al., 1995).

[9] = molecular target: T1, Cubilin; assay: Surface plasmon resonance analysis of light chain/cubilin interaction; format: binding; design: from tissue; host or cells: rat renal cortex (intermicrovillar clefts); details: cubilin 100 nM preincubated with κ-light chains (10 or 490 μM) or λ-light chains (10 μM)
Experimental: A sample of cubilin (100 nM) was incubated with κ-light chains (10 or 490 μM), or […] prior to injecting the sample over the κ-light chain surface. The binding of cubilin to the immobilized surfaces was reduced in the presence of κ- or λ-light chains in a dose-response fashion. Data are representative of experiments with 4 light chains on 3 chips. […] LC, light chains: RU, response units.
Intermicrovillar clefts prepared from renal cortices were biotinylated on the cytosolic facade using NHS-biotin (Winearls, 1995). Cubilin and the associated proteins were purified by immunoaffinity chromatography MAb 75 was coupled to CNBr-activated Sepharose 4B (Pharmacia, Saint Quentin en Yvelines, France) as previously described (Sahali et al., 1988; 1993). Protease inhibitors were added at all steps.
κ- or λ-light chains were immobilized via free amine groups to the dextran matrix of CM5 sensor chips activated by a 1/1 mixture of NHS and EDC. Unreacted sites were blocked with 1M ethanolamine, pH 8.5, (Jonsson et al., 1991; Sanders et al., 1988). The immobilization was conducted at 25° C. using 10 mM HEPES, 2 mM CaCl2, 150 mM NaCl, 0.005% NP-40, pH 7.4 as the flow buffer. Then 10 mM acetate pH 4.8 was used for electrostatic pre-concentration of the protein. […]

[10] = tested on: yolk sac epithelial cells (BN/MSV); assay: Endocytosis of FITC-light chain by yolk sac cells; format: cell-based, rat; details: 30 min, FIG. 14A; antibody at 1:1,000 dilution
Experimental: The yolk sac epithelial cell line (BN/MSV) was derived from yolk sac teratocarcinoma induced by fetectomy and placental injection of mouse sarcoma virus (Sahali et al., 1988). When grown under conventional conditions in modified Eagle's medium, supplemented with 2.5 mM L-glutamine, 10% fetal calf serum, and an antibiotic cocktail (penicillin, streptomycin, and Fungizone), the cells form a domed monolayer and express abundant cubilin (Sahali et al., 1988).
Internalization experiments were conducted by exposing confluent yolk sac cells in 24-cell plates to […] FITC-conjugated light chain. These cells were selected for endocytosis experiments because cubilin expression is 100-fold greater than cultured proximal tubule cells (Sahali et al., 1988). […] This concentration is selected because it is 10-fold higher than the half-maximal inhibitory concentration of the antibody determined from the brush border binding inhibition experiments. […] Cells are then trypsininzed, fixed in 1% formaldehyde, and suspended in PBS, and FITC incorporated into each cell is read in a Becton-Dickinson flow cytometer as described previously. Endocytosis curves are generated by plotting fluorescence units corrected for background against time. […]

Sequence of RAP (Receptor related protein) (ligand) (P30533 35-357): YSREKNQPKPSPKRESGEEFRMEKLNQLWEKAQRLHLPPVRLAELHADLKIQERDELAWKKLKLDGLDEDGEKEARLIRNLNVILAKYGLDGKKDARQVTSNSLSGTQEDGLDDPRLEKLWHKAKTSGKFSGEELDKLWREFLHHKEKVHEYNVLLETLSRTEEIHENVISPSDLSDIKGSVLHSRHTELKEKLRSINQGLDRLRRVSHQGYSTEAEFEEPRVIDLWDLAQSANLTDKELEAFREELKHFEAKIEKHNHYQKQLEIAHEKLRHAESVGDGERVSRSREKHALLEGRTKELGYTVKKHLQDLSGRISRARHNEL
Sequence of cubilin (purified; species of origin not stated where used) (receptor) (O70244 33-3623): as the sequence (O70244 33-3623) above

Substance: lysozyme
Competition with light chain for brush border membrane binding [2]: competing

Substance: cubilin: 460 kDa epithelial glycoprotein receptor for intrinsic factor-vitamin B12 complexes; rat sequence SEQ ID No. 2
pKd ([3]; binding data fitted to a one-binding-site model, 20 nM purified cubilin over immobilized rabbit megalin): 8.15

Substance: myoglobin
Competition with light chain for brush border membrane binding [2]: competing

Substance: haptoglobin: protein ligand for cubilin
Competition between ligands for binding to cubilin [5]: do not compete

Substance: cytochrome c: low molecular weight protein competing with light chain
Competition with light chain for brush border membrane binding [2]: competing

Substance: albumin: bovine serum albumin used as nonspecific protein control
Endosomal fusion [8]: 1584±314 arbitrary fluorescence units/mg protein
Effect of free protein on binding of cubilin to immobilized light chains (competition) [9]: neither competed with light chains, nor bound to cubilin
Effect on FITC-light chain endocytosis [10]: no effect

Further lines, results first:

pKd [1]: 8.15
Substance: cubilin (purified; species of origin not stated where used) (receptor)

FITC-light chain binding ([4]; 10 μM gentamicin): 45.1±3.1 arbitrary fluorescence units
FITC-light chain binding ([4]; 100 μM gentamicin): 8.9±33.8 arbitrary fluorescence units
FITC-light chain binding ([4]; 1000 μM gentamicin): 6.3±1.9 arbitrary fluorescence units
Competition between ligands for binding to cubilin [5]: directly interferes
Substance: gentamicin

Binding to megalin (control experiments) ([3]; megalin chip): no binding
Substance: Intrinsic factor vitamin B12: intrinsic factor-vitamin B12 complexes

reduction of endocytosis of 125I-IF-B12 in cultured yolk sac cell [6]: 10 to 15%
reduction of cubilin binding to megalin [7]: 75%
Substance: RAP (Receptor related protein) (ligand)

Reduction of binding of cubilin to megalin ([3]; RAP prebound to megalin): 75%
Competition between ligands for binding to cubilin [5]: does not inhibit
Substance: RAP: Receptor related protein; binds megalin and cubilin

— patent publication US6586389B1, “Cubilin protein, DNA sequences encoding cubilin and uses thereof” (Administrators of the Tulane Educational Fund, priority 1998, dated 2003)
